This passage reports Activity and Km results from ChEMBL document CHEMBL2073936, “A novel human hepatic organic anion transporting polypeptide (OATP2). Identification of a liver-specific human organic anion transporting polypeptide and identification of rat and human hydroxymethylglutaryl-CoA reductase inhibitor transporters” (J Biol Chem, 1999).

Data set [1] addresses T1, Solute carrier organic anion transporter family member 1B1 (Homo sapiens, UniProt Q9Y6L6).
T1 sequence (Q9Y6L6 whole entry): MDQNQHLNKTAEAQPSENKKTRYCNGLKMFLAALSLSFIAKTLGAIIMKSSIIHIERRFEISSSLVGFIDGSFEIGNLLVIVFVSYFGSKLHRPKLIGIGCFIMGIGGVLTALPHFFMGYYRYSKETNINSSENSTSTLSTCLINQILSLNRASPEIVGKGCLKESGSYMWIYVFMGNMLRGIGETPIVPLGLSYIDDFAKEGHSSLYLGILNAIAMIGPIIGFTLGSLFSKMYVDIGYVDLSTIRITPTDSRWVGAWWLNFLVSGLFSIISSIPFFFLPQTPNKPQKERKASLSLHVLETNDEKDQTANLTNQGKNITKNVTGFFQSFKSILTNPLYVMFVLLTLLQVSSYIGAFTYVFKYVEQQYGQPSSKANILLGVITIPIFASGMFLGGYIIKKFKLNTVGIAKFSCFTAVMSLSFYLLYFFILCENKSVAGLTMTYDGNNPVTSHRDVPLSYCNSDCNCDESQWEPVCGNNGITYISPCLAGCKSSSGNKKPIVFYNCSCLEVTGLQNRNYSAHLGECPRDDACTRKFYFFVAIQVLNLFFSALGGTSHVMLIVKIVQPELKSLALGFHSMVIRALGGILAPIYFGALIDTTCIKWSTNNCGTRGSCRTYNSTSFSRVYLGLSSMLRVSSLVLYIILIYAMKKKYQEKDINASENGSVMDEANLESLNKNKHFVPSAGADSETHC
In words: TP_TRANSPORTER: inhibition of Pravastatin uptake (Pravastatin: 0.5 uM, Atorvastatin: 50 uM) in OATP-C-expressing 293c18 cells. The data set is classed as functional, cell-based. The settings on record: hek293-ebna.

In data set [2] the target is T1, Solute carrier organic anion transporter family member 1B1. Kind of data set: TP_TRANSPORTER: inhibition of Taurocholate uptake (Taurocholate: 0.5 uM, Atorvastatin: 50 uM) in OATP-C-expressing 293c18 cells. Format: functional, cell-based. The settings on record: hek293-ebna.
The target in data set [3] is T2, Solute carrier organic anion transporter family member 1A1 (Rattus norvegicus, UniProt P46720).
T2 sequence (P46720 whole entry): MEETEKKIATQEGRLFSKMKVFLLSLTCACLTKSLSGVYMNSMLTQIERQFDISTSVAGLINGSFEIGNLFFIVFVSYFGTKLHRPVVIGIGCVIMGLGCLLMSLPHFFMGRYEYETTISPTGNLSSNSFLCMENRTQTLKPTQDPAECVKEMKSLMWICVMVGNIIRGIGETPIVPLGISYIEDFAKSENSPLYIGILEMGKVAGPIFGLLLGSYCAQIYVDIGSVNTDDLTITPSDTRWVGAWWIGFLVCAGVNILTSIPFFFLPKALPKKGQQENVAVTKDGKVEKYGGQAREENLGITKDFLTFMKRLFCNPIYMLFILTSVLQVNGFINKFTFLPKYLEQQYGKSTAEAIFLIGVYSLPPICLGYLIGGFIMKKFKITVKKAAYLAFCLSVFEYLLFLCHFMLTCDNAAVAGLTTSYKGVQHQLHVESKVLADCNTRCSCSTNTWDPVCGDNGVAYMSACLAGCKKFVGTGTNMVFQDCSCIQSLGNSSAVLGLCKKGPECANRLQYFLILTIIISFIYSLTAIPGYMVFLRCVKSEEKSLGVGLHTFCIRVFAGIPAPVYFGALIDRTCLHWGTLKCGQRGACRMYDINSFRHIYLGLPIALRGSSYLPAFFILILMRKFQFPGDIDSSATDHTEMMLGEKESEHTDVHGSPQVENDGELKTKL
Kind of data set: TP_TRANSPORTER: inhibition of Pravastatin uptake (Pravastatin: 0.5 uM, Atorvastatin: 50 uM) in Oatp1-expressing 293c18 cells. As to conditions: human, hek293-ebna. The data set is classed as functional, cell-based.

In data set [4] the target is T2, Solute carrier organic anion transporter family member 1A1. In words: TP_TRANSPORTER: inhibition of Taurocholate uptake (Taurocholate: 0.5 uM, Atorvastatin: 50 uM) in Oatp1-expressing 293c18 cells. Format: functional, cell-based. As to conditions: human, hek293-ebna.
Data set [5] shares this target. Kind of data set: TP_TRANSPORTER: inhibition of Pravastatin uptake (Pravastatin: 0.5 uM, Simvastatin: 50 uM) in Oatp1-expressing 293c18 cells. The data set is classed as functional, cell-based. The settings on record: human, hek293-ebna.
Data set [6] shares this target. In words: TP_TRANSPORTER: inhibition of Taurocholate uptake (Taurocholate: 0.5 uM, Simvastatin: 50 uM) in Oatp1-expressing 293c18 cells. The data set is classed as functional, cell-based. As to conditions: human, hek293-ebna.
For data set [7] the target is unchanged. In words: TP_TRANSPORTER: inhibition of Pravastatin uptake (Pravastatin: 0.5 uM, BMS243887: 50 uM) in Oatp1-expressing 293c18 cells. The settings on record: human, hek293-ebna. Format: functional, cell-based.
Data set [8] addresses T1, Solute carrier organic anion transporter family member 1B1. In words: TP_TRANSPORTER: inhibition of Taurocholate uptake (Taurocholate: 0.5 uM, BMS243887: 50 uM) in OATP-C-expressing 293c18 cells. Format: functional, cell-based. The settings on record: hek293-ebna.
The target in data set [9] is T2, Solute carrier organic anion transporter family member 1A1. In words: TP_TRANSPORTER: inhibition of Taurocholate uptake (Taurocholate: 0.5 uM, BMS243887: 50 uM) in Oatp1-expressing 293c18 cells. Format: functional, cell-based. The settings on record: human, hek293-ebna.
Data set [10] has as its target T1, Solute carrier organic anion transporter family member 1B1. In words: TP_TRANSPORTER: inhibition of Pravastatin uptake (Pravastatin: 0.5 uM, BMS243887: 50 uM) in OATP-C-expressing 293c18 cells. The data set is classed as functional, cell-based. The settings on record: hek293-ebna.
Data set [11] has the same target. In words: TP_TRANSPORTER: inhibition of Pravastatin uptake (Pravastatin: 0.5 uM, Lovastatin: 50 uM) in OATP-C-expressing 293c18 cells. The settings on record: hek293-ebna. Format: functional, cell-based.
Data set [12] shares this target. In words: TP_TRANSPORTER: inhibition of Taurocholate uptake (Taurocholate: 0.5 uM, Lovastatin: 50 uM) in OATP-C-expressing 293c18 cells. Format: functional, cell-based. As to conditions: hek293-ebna.
Data set [13] addresses T2, Solute carrier organic anion transporter family member 1A1. In words: TP_TRANSPORTER: inhibition of Pravastatin uptake (Pravastatin: 0.5 uM, Lovastatin: 50 uM) in Oatp1-expressing 293c18 cells. The data set is classed as functional, cell-based. As to conditions: human, hek293-ebna.
Data set [14] shares this target. Kind of data set: TP_TRANSPORTER: inhibition of Taurocholate uptake (Taurocholate: 0.5 uM, Lovastatin: 50 uM) in Oatp1-expressing 293c18 cells. The data set is classed as functional, cell-based. The settings on record: human, hek293-ebna.
The target in data set [15] is T1, Solute carrier organic anion transporter family member 1B1. Kind of data set: (§1) TP_TRANSPORTER: uptake in OATP-C-expressing 293c18 cells. As to conditions: hek293-ebna. The data set is classed as functional, cell-based.
In data set [16] the target is T2, Solute carrier organic anion transporter family member 1A1. In words: TP_TRANSPORTER: inhibition of Taurocholate uptake (Taurocholate: 0.5 uM, BMS241423: 50 uM) in Oatp1-expressing 293c18 cells. The data set is classed as functional, cell-based. The settings on record: human, hek293-ebna.
Data set [17] has the same target. Kind of data set: TP_TRANSPORTER: inhibition of Pravastatin uptake (Pravastatin: 0.5 uM, BMS241423: 50 uM) in Oatp1-expressing 293c18 cells. Format: functional, cell-based. As to conditions: human, hek293-ebna.
Data set [18] addresses T1, Solute carrier organic anion transporter family member 1B1. Kind of data set: TP_TRANSPORTER: inhibition of Pravastatin uptake (Pravastatin: 0.5 uM, BMS241423: 50 uM) in OATP-C-expressing 293c18 cells. The settings on record: hek293-ebna. The data set is classed as functional, cell-based.
Data set [19] has the same target. Kind of data set: TP_TRANSPORTER: inhibition of Taurocholate uptake (Taurocholate: 0.5 uM, BMS241423: 50 uM) in OATP-C-expressing 293c18 cells. Format: functional, cell-based. As to conditions: hek293-ebna.
For data set [20], the target named is T2, Solute carrier organic anion transporter family member 1A1. In words: TP_TRANSPORTER: inhibition of Taurocholate uptake (Taurocholate: 0.5 uM, DHEAS: 50 uM) in Oatp1-expressing 293c18 cells. Format: functional, cell-based. The settings on record: human, hek293-ebna.
Data set [21] has the same target. Kind of data set: TP_TRANSPORTER: inhibition of Pravastatin uptake (Pravastatin: 0.5 uM, DHEAS: 50 uM) in Oatp1-expressing 293c18 cells. Format: functional, cell-based. As to conditions: human, hek293-ebna.
Substrate in data set [22]: CC[C@H](C)C(=O)O[C@H]1C[C@H](O)C=C2C=C[C@H](C)[C@H](CC[C@@H](O)C[C@@H](O)CC(=O)O)[C@H]21
In words: TP_TRANSPORTER: uptake in Oatp1-expressing 293c18 cells. Format: functional, cell-based, HEK293-EBNA.

Substrate in data set [23]: CC[C@H](C)C(=O)O[C@H]1C[C@H](O)C=C2C=C[C@H](C)[C@H](CC[C@@H](O)C[C@@H](O)CC(=O)O)[C@H]21
Described as §1. Format: functional, cell-based, HEK293-EBNA.

Consider `CC(C)c1c(C(=O)Nc2ccccc2)c(-c2ccccc2)c(-c2ccc(F)cc2)n1CC[C@@H](O)C[C@@H](O)CC(=O)O` [ATORVASTATIN], for which the Activity result in [1], in data set [2], in data set [3] and in data set [4] was “inhibitor [+]” each time.

Take `CCC(C)(C)C(=O)O[C@H]1C[C@@H](C)C=C2C=C[C@H](C)[C@H](CC[C@@H]3C[C@@H](O)CC(=O)O3)[C@H]21` [SIMVASTATIN]: the Activity entry in data set [5] and in data set [6] was “inhibitor [+]” in each case.

`CC(C)c1c(C(=O)Nc2ccccc2O)c(-c2ccccc2)c(-c2ccc(F)cc2)n1CC[C@@H](O)C[C@@H](O)CC(=O)O`: the Activity entry in [7], in data set [8], in data set [9] and in [10] was “inhibitor [+]” throughout.

With `CC[C@H](C)C(=O)O[C@H]1C[C@@H](C)C=C2C=C[C@H](C)[C@H](CC[C@@H]3C[C@@H](O)CC(=O)O3)[C@H]21` [LOVASTATIN], the Activity entry in [11], in data set [12], in data set [13] and in data set [14] was “inhibitor [+]” each time.

For `N[C@@H](Cc1cc(I)c(Oc2cc(I)c(O)c(I)c2)c(I)c1)C(=O)O` [LEVOTHYROXINE], in data set [15], the Activity entry is “substrate [+]”.

Regarding `CC(C)c1c(C(=O)Nc2ccc(O)cc2)c(-c2ccccc2)c(-c2ccc(F)cc2)n1CC[C@H](O)C[C@H](O)CC(=O)O` [BMS241423], the Activity entry in [16], in [17], in data set [18] and in [19] was “inhibitor [+]” throughout.

With `C[C@]12CC[C@H](OS(=O)(=O)O)CC1=CC[C@@H]1[C@@H]2CC[C@]2(C)C(=O)CC[C@@H]12` [PRASTERONE SULFURIC ACID], the Activity result was “inhibitor [+]” in data set [20], “inhibitor [+]” in [21] and “substrate [+]” in data set [15].

B1: Solute carrier organic anion transporter family member 1A1 (Rattus norvegicus) (protein)
chain: T2 sequence (P46720 whole entry)
Regarding B1, the Km in [22] was determined as 30 µM.

B2: Solute carrier organic anion transporter family member 1B1 (Homo sapiens) (protein)
chain: T1 sequence (Q9Y6L6 whole entry)
In the case of B2, the Km in data set [23] was 33.7 µM.
